Experimental data reported in patent US12433953B2, “Compositions and methods related to tumor activated antibodies targeting EGFR and effector cell antigens” (Janux Therapeutics, Inc., priority 2021, dated 2025).
Like-named read-outs stand apart in the source and are kept apart here. Each block holds one molecule with its values, some of them ahead of it.

Columns and labels:
EGFR IgG = experiment: ELISA binding of peptides to EGFR IgG; conditions: Table 12; antibody concentration for half maximal signal; read-out: EC50 for peptide binding to EGFR IgG
[1] = target: EGFR IgG binding to the EGFR antigen; experiment: ELISA competitive inhibition of EGFR IgG binding to EGFR antigen; conditions: for IC50: read-out: IC50 for peptide inhibition of EGFR IgG binding to EGFR antigen, Table 13
EGFR Fab = experiment: ELISA binding of peptides to EGFR Fab; conditions: read-out: EC50 for peptide binding to αEGFR Fab
[2] = target: EGFR Fab binding to the EGFR antigen; experiment: ELISA competitive inhibition of EGFR Fab binding to EGFR antigen; conditions: for IC50: read-out: IC50 for peptide inhibition of αEGFR Fab binding to EGFR antigen
[3] = Table 27, peptide-8 optimization
[4] = Table 25, peptide-8 optimization

SMILES: CC[C@H](C)[C@@H]1NC(=O)[C@H](CC(C)C)NC(=O)[C@H](Cc2c[nH]cn2)NC(=O)[C@H](C)NC(=O)[C@H](CC(=O)O)NC(=O)[C@H](C)NC(=O)[C@@H](NC(=O)[C@H](CO)NC(=O)[C@@H](N)[C@@H](C)O)CSSC[C@@H](C(=O)N[C@@H](CO)C(=O)O)NC(=O)[C@H](CO)NC(=O)[C@@H]2CCCN2C(=O)[C@H](C)NC1=O [Peptide-2]
- EC50 (EGFR IgG): 84 nM
- IC50 [1]: > 300 nM

SMILES: CC(C)[C@@H]1NC(=O)[C@H](Cc2c[nH]c3ccccc23)NC(=O)[C@H]([C@@H](C)O)NC(=O)[C@H](CC(N)=O)NC(=O)[C@H](CC(=O)O)NC(=O)[C@H](CCC(N)=O)NC(=O)CNC(=O)[C@@H](NC(=O)[C@@H](N)Cc2ccc(O)cc2)CSSC[C@@H](C(=O)N[C@@H](Cc2ccccc2)C(=O)O)NC(=O)CNC(=O)[C@H](CCC(=O)O)NC(=O)[C@H](CCCNC(=N)N)NC1=O [Peptide-6]
- EC50 (EGFR IgG): 0.3 nM
- inhibiting EGFR IgG binding to the EGFR antigen (in words) ([1]; among peptide-1 to peptide-6): most effective at inhibiting EGFR IgG binding to the EGFR antigen
- EC50 (EGFR Fab; Table 16): 458 nM

SMILES: CSCC[C@@H]1NC(=O)[C@H](Cc2c[nH]cn2)NC(=O)[C@H](CO)NC(=O)CNC(=O)[C@H](CC(=O)O)NC(=O)[C@H](Cc2c[nH]cn2)NC(=O)[C@@H](NC(=O)[C@H](CO)NC(=O)[C@@H](NC(=O)[C@@H](N)Cc2c[nH]c3ccccc23)C(C)C)CSSC[C@@H](C(=O)N[C@@H](Cc2ccccc2)C(=O)N[C@@H](Cc2c[nH]cn2)C(=O)O)NC(=O)[C@H]([C@@H](C)O)NC1=O [Peptide-4]
- IC50 [1]: > 300 nM

SMILES: CSCC[C@@H]1NC(=O)[C@H](CCCNC(=N)N)NC(=O)[C@H](C(C)C)NC(=O)[C@H](CCSC)NC(=O)[C@H](CCCNC(=N)N)NC(=O)[C@H](Cc2c[nH]cn2)NC(=O)[C@H](CC(C)C)NC(=O)CNC(=O)[C@H](CC(=O)O)NC(=O)CNC(=O)[C@@H](NC(=O)CN)CSSC[C@@H](C(=O)O)NC(=O)[C@H](Cc2c[nH]c3ccccc23)NC1=O [Peptide-12]
- IC50 ([2]; Table 17): > 300 nM
- EC50 (EGFR Fab; Table 15): > 1000 nM

SMILES: CC[C@H](C)[C@@H]1NC(=O)[C@@H]2CCCN2C(=O)[C@H](CCCCN)NC(=O)[C@H](C)NC(=O)[C@@H]2CCCN2C(=O)[C@H](CC(=O)O)NC(=O)[C@H](CC(N)=O)NC(=O)[C@H](Cc2c[nH]cn2)NC(=O)[C@H](Cc2ccc(O)cc2)NC(=O)[C@H](C)NC(=O)[C@@H](NC(=O)[C@@H]2CCCN2)CSSC[C@@H](C(=O)N[C@@H](CO)C(=O)O)NC1=O [Peptide-45, PCAYHNDPAKPICS]
- potency as peptide mask (in words) ([2]; binding and inhibition data relative to peptide-8): more potent peptide masks
- IC50 [2, 3]: 543 nM
- EC50 (EGFR Fab; [4]): 10.3 nM

SMILES: CC[C@H](C)[C@@H]1NC(=O)[C@H](CC(=O)O)NC(=O)[C@H](Cc2ccccc2)NC(=O)[C@H](Cc2c[nH]cn2)NC(=O)[C@H](CO)NC(=O)[C@H](CC(N)=O)NC(=O)[C@@H](NC(=O)[C@@H]2CCCN2)CSSC[C@@H](C(=O)N[C@@H](CC(C)C)C(=O)O)NC(=O)[C@H]([C@@H](C)CC)NC(=O)[C@@H]2CCCN2C(=O)[C@H](CCCCN)NC(=O)[C@H](C)NC1=O [Peptide-44]
- IC50 [2, 3]: 6570 nM
- EC50 (EGFR Fab; [4]): 341 nM

SMILES: CSCC[C@@H]1NC(=O)[C@H](Cc2c[nH]cn2)NC(=O)[C@H](CO)NC(=O)[C@@H](NC(=O)[C@@H](N)CCC(=O)O)CSSC[C@@H](C(=O)N[C@@H](CO)C(=O)O)NC(=O)[C@H](CC(C)C)NC(=O)[C@@H]2CCCN2C(=O)[C@H](Cc2c[nH]c3ccccc23)NC(=O)[C@H](CCCNC(=N)N)NC(=O)[C@H]([C@@H](C)O)NC(=O)CNC(=O)[C@H](CCC(=O)O)NC1=O [Peptide-16]
- IC50 ([2]; Table 18): > 300 nM
- EC50 (EGFR Fab; Table 16): 34 nM

More lines, now with the values ahead:

- EC50 (EGFR IgG): 52 nM
- IC50 [1]: > 300 nM
SMILES: CSCC[C@@H]1NC(=O)[C@H](CC(C)C)NC(=O)[C@H](CO)NC(=O)[C@H](CCCNC(=N)N)NC(=O)[C@@H](NC(=O)[C@H](Cc2c[nH]c3ccccc23)NC(=O)[C@@H](N)CC(=O)O)CSSC[C@@H](C(=O)N2CCC[C@H]2C(=O)O)NC(=O)[C@H](CC(C)C)NC(=O)[C@H](CC(=O)O)NC(=O)[C@H]([C@@H](C)O)NC(=O)[C@H](Cc2ccc(O)cc2)NC(=O)[C@H](CO)NC1=O [Peptide-1]

- EC50 (EGFR IgG): 413 nM
- IC50 [1]: > 300 nM
SMILES: CC(C)[C@@H]1NC(=O)[C@H](CCCNC(=N)N)NC(=O)[C@H](CC(=O)O)NC(=O)[C@H](Cc2c[nH]c3ccccc23)NC(=O)[C@H](CCC(N)=O)NC(=O)[C@@H](NC(=O)[C@@H](N)CC(N)=O)CSSC[C@@H](C(=O)N[C@@H](CO)C(=O)O)NC(=O)[C@H](C)NC(=O)[C@H](Cc2ccc(O)cc2)NC(=O)[C@H]([C@@H](C)O)NC(=O)[C@H](Cc2c[nH]cn2)NC(=O)[C@H](CCC(=O)O)NC1=O [Peptide-3]

- EC50 (EGFR IgG): 2 nM
- IC50 [1]: > 300 nM
SMILES: CSCC[C@H](N)C(=O)N[C@@H](CC(N)=O)C(=O)N[C@H]1CSSC[C@@H](C(=O)N[C@@H](CC(C)C)C(=O)N[C@H](C(=O)O)C(C)C)NC(=O)[C@H](Cc2ccc(O)cc2)NC(=O)[C@H](CCC(=O)O)NC(=O)[C@H](C(C)C)NC(=O)[C@H](Cc2c[nH]c3ccccc23)NC(=O)[C@H](CC(C)C)NC(=O)[C@H](CCCNC(=N)N)NC(=O)[C@H](CC(N)=O)NC(=O)[C@H](CC(C)C)NC1=O [Peptide-5]
